Laboratory results reported in patent US20260216183A1 (SHENZHEN NEWDEL BIOTECH CO., LTD., priority 2023, published 2026).

Tests used:
[1] = molecular target: T1, TRKA (Homo sapiens, UniProt P04629); assay: TRKA enzyme activity assay (HTRF); type: biochemical; conditions: ATP 25 μM
T1 construct: purchased Carna 08-186
From the text: (§2) A kinase phosphorylates a substrate, and an antibody labeled with Eu-CryPtate binds to a phosphorylation site in the substrate; streptavidin-XL665 binds to the substrate biotin; when Eu and XL665 are close, Eu as a donor emits emission light (620 nm) after being excited by a light source (320 nm) and transfers energy resonance to a close XL665 receptor, and the receptor emits emission light (665 nm) after being excited; the specific signal is proportional to the phosphorylated substrate; when an inhibitor is added, the phosphorylation level is inhibited, the emission light at 665 nm is undetectable, and only the emission light at 620 nm is detected, so as to evaluate the level of inhibition of kinase activity by the compound.
Replicate wells were set for the assay. 25 nL of the compound was transferred to a 384 reaction plate (Catalog No. 784075, Greiner) using Echo 665. […] 2.5 μL of TRKA (1.5 nM, 08-186, Carna) solution was transferred to a 384 reaction plate. The plate was centrifuged at 1000 rpm for 60 s using a centrifuge and incubated at 25° C. for 10 min. […] The fluorescence signals at 620 nm (Cryptate) and 665 nm (XL665) were read using a BMG microplate reader. The ratio of the fluorescence signals, i.e., (665 nm/620 nm)×10000, in each well was calculated, and the ratio represented the degree of the kinase activity.

[2] = molecular target: T2, TRKC (Homo sapiens, UniProt Q16288); assay: TRKC enzyme activity assay (HTRF); type: biochemical; conditions: ATP 25 μM
T2 construct: purchased Carna 08-197
T2 sequence (Q16288 32-839): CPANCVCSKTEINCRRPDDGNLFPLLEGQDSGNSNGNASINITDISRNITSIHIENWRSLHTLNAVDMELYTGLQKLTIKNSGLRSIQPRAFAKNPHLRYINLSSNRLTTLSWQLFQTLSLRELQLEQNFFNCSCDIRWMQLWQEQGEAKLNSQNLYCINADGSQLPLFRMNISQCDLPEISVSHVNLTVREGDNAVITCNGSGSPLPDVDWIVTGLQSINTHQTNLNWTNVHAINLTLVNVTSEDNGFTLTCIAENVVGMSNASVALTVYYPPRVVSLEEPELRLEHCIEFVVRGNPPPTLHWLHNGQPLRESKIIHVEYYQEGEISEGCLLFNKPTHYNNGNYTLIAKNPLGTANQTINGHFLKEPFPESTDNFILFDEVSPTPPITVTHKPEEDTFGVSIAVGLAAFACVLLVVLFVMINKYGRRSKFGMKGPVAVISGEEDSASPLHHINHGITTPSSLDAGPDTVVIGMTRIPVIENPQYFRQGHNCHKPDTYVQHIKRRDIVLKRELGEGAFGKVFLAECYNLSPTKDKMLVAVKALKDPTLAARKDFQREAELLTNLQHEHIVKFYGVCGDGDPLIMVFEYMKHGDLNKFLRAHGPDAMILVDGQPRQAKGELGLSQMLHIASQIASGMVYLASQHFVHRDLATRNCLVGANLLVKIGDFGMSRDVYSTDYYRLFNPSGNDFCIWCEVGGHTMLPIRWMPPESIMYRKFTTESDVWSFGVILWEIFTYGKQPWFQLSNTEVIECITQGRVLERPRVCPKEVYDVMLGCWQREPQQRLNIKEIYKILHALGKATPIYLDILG
From the text: as §2
Replicate wells were set for the assay. […] 2.5 μL of TRKC (1.5 nM, 08-197, Carna) solution was transferred to a 384 reaction plate. The plate was centrifuged at 1000 rpm for 60 s using a centrifuge and incubated at 25° C. for 10 min. A mixed solution of 2× biotin-labeled tyrosine kinase substrate (1 μM) and ATP (25 μM) was prepared using the kinase reaction buffer. […] The fluorescence signals at 620 nm (Cryptate) and 665 nm (XL665) were read using a BMG microplate reader. The ratio of the fluorescence signals, i.e., (665 nm/620 nm)×10000, in each well was calculated, and the ratio represented the degree of the kinase activity.

[3] = molecular target: T3, DDR1 (Homo sapiens, UniProt Q08345); assay: DDR1 enzyme activity assay (HTRF); type: biochemical; conditions: ATP 25 μM
T3 construct: purchased Carna 08-113
T3 sequence (Q08345 19-913): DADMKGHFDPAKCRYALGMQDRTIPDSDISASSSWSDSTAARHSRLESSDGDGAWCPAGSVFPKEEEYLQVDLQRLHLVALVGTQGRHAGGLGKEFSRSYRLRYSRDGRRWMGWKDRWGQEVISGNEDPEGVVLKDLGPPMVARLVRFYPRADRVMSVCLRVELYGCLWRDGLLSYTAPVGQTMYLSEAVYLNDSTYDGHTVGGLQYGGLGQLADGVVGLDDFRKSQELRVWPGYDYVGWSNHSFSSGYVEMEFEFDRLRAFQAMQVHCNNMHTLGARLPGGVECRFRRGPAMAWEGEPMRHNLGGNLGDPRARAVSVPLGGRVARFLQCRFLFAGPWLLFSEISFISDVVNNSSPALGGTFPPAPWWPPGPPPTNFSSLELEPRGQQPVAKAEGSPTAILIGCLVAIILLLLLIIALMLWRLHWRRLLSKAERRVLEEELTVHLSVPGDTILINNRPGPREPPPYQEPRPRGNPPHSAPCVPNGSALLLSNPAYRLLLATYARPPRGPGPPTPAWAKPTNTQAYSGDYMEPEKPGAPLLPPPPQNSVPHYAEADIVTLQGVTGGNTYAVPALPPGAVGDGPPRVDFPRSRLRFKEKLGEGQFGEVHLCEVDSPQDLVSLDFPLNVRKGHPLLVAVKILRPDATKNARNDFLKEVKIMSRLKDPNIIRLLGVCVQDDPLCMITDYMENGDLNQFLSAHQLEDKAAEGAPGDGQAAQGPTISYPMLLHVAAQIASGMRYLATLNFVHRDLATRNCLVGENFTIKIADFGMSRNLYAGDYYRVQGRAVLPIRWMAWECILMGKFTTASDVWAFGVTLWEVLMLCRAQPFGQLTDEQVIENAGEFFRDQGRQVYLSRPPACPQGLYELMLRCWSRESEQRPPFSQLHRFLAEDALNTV
From the text: as §2
Replicate wells were set for the assay. […] 2.5 μL of DDR1 (2.7 nM, 08-113, Carna) solution was transferred to a 384 reaction plate. The plate was centrifuged at 1000 rpm for 60 s using a centrifuge and incubated at 25° C. for 10 min. A mixed solution of 2× biotin-labeled tyrosine kinase substrate (1 μM) and ATP (25 μM) was prepared using the kinase reaction buffer. […] The fluorescence signals at 620 nm (Cryptate) and 665 nm (XL665) were read using a BMG microplate reader. The ratio of the fluorescence signals, i.e., (665 nm/620 nm)×10000, in each well was calculated, and the ratio represented the degree of the kinase activity.

[4] = molecular target: T4, DDR2 (Homo sapiens, UniProt Q16832); assay: DDR2 enzyme activity assay (HTRF); type: biochemical; conditions: ATP 25 μM
T4 sequence (Q16832 22-855): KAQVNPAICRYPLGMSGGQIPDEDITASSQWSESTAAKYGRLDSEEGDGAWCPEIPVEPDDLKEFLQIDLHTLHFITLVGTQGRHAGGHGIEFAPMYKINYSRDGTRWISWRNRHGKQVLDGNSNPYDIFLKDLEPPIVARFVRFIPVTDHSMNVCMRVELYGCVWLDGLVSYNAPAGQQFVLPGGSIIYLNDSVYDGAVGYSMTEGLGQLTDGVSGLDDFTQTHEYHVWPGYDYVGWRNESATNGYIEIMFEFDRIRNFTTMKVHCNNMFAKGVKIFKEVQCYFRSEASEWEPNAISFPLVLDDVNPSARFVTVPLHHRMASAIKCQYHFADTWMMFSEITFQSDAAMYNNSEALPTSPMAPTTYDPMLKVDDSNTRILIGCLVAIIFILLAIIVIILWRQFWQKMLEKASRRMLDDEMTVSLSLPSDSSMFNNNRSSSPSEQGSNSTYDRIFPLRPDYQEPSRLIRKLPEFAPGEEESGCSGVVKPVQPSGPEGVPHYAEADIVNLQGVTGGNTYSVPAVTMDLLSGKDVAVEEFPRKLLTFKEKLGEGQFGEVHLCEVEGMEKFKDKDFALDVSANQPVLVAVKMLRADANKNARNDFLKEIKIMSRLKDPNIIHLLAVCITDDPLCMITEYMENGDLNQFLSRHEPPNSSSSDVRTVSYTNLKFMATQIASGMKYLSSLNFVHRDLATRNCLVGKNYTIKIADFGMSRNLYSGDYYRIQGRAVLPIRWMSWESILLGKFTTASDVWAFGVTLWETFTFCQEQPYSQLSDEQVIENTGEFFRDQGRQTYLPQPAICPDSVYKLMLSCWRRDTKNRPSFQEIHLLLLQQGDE
Procedure: Replicate wells were set for the assay. […] 2.5 μL of DDR2 (1.3 nM, 08-114, Carna) solution was transferred to a 384 reaction plate. The plate was centrifuged at 1000 rpm for 60 s using a centrifuge and incubated at 25° C. for 10 min. A mixed solution of 2× biotin-labeled tyrosine kinase substrate (1 μM) and ATP (25 μM) was prepared using the kinase reaction buffer. 2.5 μL of the mixed solution of the substrate and ATP was added to the reaction plate to start the reaction, and the plate was centrifuged at 1000 rpm for 60 s using the centrifuge. The plate was sealed with a plate-sealing film and incubated at 25° C. for 40 min. 5 μL of a mixed solution of Eu-CryPtate-labeled anti-tyrosine kinase antibody and streptavidin-XL665 was added to each well of the reaction plate. The plate was centrifuged at 1000 rpm for 1 min and incubated at 25° C. for 60 min. The fluorescence signals at 620 nm (Cryptate) and 665 nm (XL665) were read using a BMG microplate reader. The ratio of the fluorescence signals, i.e., (665 nm/620 nm)×10000, in each well was calculated, and the ratio represented the degree of the kinase activity.

[5] = molecular target: T5, CSF1R (Homo sapiens, UniProt P07333); assay: CSF1R enzyme activity assay (HTRF); type: biochemical; conditions: ATP 25 μM
T5 construct: purchased Carna 08-114
T5 sequence (P07333 538-972 limits assumed): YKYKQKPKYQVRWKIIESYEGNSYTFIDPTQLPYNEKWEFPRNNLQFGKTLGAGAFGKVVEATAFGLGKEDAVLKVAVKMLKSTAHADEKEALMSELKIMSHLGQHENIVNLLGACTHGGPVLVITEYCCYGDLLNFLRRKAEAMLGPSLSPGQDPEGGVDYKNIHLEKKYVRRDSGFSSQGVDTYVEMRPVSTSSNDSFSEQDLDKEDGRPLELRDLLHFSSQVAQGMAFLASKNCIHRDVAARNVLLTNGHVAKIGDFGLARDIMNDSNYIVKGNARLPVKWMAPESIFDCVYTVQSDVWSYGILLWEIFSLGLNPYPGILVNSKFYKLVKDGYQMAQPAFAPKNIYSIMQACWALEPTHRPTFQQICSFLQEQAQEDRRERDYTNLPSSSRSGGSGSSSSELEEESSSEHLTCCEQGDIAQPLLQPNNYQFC
From the text: as §2
Replicate wells were set for the assay. […] 2.5 μL of CSF1R (1.3 nM, 08-114, Carna) solution was transferred to a 384 reaction plate. The plate was centrifuged at 1000 rpm for 60 s using a centrifuge and incubated at 25° C. for 10 min. A mixed solution of 2× biotin-labeled tyrosine kinase substrate (1 μM) and ATP (25 μM) was prepared using the kinase reaction buffer. […] The fluorescence signals at 620 nm (Cryptate) and 665 nm (XL665) were read using a BMG microplate reader. The ratio of the fluorescence signals, i.e., (665 nm/620 nm)×10000, in each well was calculated, and the ratio represented the degree of the kinase activity.

[6] = tested on: OXA-induced atopic dermatitis mouse model; assay: OXA-induced atopic dermatitis mouse model, oral administration; type: in vivo, Balb/c mice; conditions: for Inflammatory cell content in right ear tissue, Significance level: compared to G2 (vehicle); for Clinical scores of dorsal skin, Significance level / Rate of change in the thickness of the pinna of the right ear, Significance level / Thickness of dermis layer of right ear, Significance level / Thickness of epidermal layer of right ear, Significance level / Pinna thickness change rate at time point, Significance level: vs group 2 (vehicle); for Number of inflammatory cells per mm: right ear tissue, Mean ± SEM
Procedure: (§1) (1) Screening and grouping: 60 female 6- to 8-week-old Balb/c mice in total were used as experimental animals in this project, which were obtained from Shanghai Model Organisms Center, Inc. The first grouping was done before the start of the experiment. […] (2) Animal modeling: The day when the first grouping was done was designated as day (−7). The backs of the mice were depilated with depilatory cream (area of about 2 cm×3 cm). […] The 1% OXA solution was prepared by weighing 0.1 g of OXA powder, adding 10 mL of an acetone solution, mixing well, and dissolving. […] (3) The administration mode of the test substance: […] The mice were sacrificed on day 21. The skin of the right ear of the mice was left for pathological examination. The thickness of the epidermal layer and inflammatory cell infiltration were measured by H&E staining, and the thickness of the dermis layer was measured by Masson staining.

[7] = Mouse body weight change in the oral administration experiment; type: in vivo, Balb/c mice; conditions: vs group 2 (vehicle)
Procedure: as §1

T1 sequence (P04629 33-796): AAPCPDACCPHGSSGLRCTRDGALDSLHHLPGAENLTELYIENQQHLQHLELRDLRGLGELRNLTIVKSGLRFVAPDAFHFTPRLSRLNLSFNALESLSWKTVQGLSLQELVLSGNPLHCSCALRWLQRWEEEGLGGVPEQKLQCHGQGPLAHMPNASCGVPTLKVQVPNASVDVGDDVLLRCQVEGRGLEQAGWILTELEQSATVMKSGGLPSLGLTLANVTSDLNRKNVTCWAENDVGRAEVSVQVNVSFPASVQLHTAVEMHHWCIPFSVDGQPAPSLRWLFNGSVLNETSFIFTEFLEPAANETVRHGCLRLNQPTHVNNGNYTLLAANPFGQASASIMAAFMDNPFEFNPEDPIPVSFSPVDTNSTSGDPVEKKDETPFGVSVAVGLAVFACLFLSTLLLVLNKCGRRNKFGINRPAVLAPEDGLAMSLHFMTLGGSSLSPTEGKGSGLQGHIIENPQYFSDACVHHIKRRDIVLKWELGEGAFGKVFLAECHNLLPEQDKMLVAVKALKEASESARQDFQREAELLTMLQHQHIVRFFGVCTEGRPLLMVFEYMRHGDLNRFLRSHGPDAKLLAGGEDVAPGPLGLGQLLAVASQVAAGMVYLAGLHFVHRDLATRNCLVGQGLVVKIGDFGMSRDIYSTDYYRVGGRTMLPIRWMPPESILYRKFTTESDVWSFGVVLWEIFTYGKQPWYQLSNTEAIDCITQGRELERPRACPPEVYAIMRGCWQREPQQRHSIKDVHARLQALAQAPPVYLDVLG

Cc1c(C#Cc2cnc3ccc(N4CCC(O)CC4)nn23)cccc1C(=O)Nc1cc(Cl)cc(C(F)(F)F)c1 [compound 1, N-(3-chloro-5-(trifluoromethyl)phenyl)-3-((6-(4-hydroxypiperidin-1-yl)imidazo[1,2-b]pyridazin-3-yl)ethynyl)-2-methylbenzamide]
IC50 [1]: 4.4 nM | IC50 [2]: 0.35 nM | IC50 [3]: 0.762 nM | IC50 [4]: 37.9 nM | IC50 [5]: 14.7 nM | Inflammatory cell content in right ear tissue, Significance level ([6]; 3 mpk p.o. once daily 22 days): *** (***p<0.001) | Clinical scores of dorsal skin, Significance level ([6]; 3 mpk p.o. once daily 22 days): ns (p>0.05) | Rate of change in the thickness of the pinna of the right ear, Significance level ([6]; 3 mpk p.o. once daily 22 days): * (*p<0.05) | Thickness of dermis layer of right ear, Significance level ([6]; 3 mpk p.o. once daily 22 days): **** (****p<0.0001) | Thickness of epidermal layer of right ear, Significance level ([6]; 3 mpk p.o. once daily 22 days): * (*p<0.05) | Inflammatory cell content in right ear tissue, Significance level ([6]; 10 mpk p.o. once daily 22 days): *** (***p<0.001) | Clinical scores of dorsal skin, Significance level ([6]; 10 mpk p.o. once daily 22 days): * (*p<0.05) | Rate of change in the thickness of the pinna of the right ear, Significance level ([6]; 10 mpk p.o. once daily 22 days): **** (****p<0.0001) | Thickness of dermis layer of right ear, Significance level ([6]; 10 mpk p.o. once daily 22 days): **** (****p<0.0001) | Thickness of epidermal layer of right ear, Significance level ([6]; 10 mpk p.o. once daily 22 days): * (*p<0.05) | Inflammatory cell content in right ear tissue, Significance level ([6]; 30 mpk p.o. once daily 22 days): *** (***p<0.001) | Clinical scores of dorsal skin, Significance level ([6]; 30 mpk p.o. once daily 22 days): *** (***p<0.001) | Rate of change in the thickness of the pinna of the right ear, Significance level ([6]; 30 mpk p.o. once daily 22 days): **** (****p<0.0001) | Thickness of dermis layer of right ear, Significance level ([6]; 30 mpk p.o. once daily 22 days): **** (****p<0.0001) | Thickness of epidermal layer of right ear, Significance level ([6]; 30 mpk p.o. once daily 22 days): * (*p<0.05) | Pinna thickness change rate at time point, Significance level ([6]; day 3, 3 mpk p.o. once daily): ns (p>0.05) | Pinna thickness change rate at time point, Significance level ([6]; day 3, 10 mpk p.o. once daily): ns (p>0.05) | Pinna thickness change rate at time point, Significance level ([6]; day 3, 30 mpk p.o. once daily): ** (**p<0.01) | Pinna thickness change rate at time point, Significance level ([6]; day 5, 3 mpk p.o. once daily): ns (p>0.05) | Pinna thickness change rate at time point, Significance level ([6]; day 5, 10 mpk p.o. once daily): ns (p>0.05) | Pinna thickness change rate at time point, Significance level ([6]; day 5, 30 mpk p.o. once daily): ** (**p<0.01) | Pinna thickness change rate at time point, Significance level ([6]; day 7, 3 mpk p.o. once daily): ns (p>0.05) | Pinna thickness change rate at time point, Significance level ([6]; day 7, 10 mpk p.o. once daily): ns (p>0.05) | Pinna thickness change rate at time point, Significance level ([6]; day 7, 30 mpk p.o. once daily): ** (**p<0.01) | Pinna thickness change rate at time point, Significance level ([6]; day 10, 3 mpk p.o. once daily): * (*p<0.05) | Pinna thickness change rate at time point, Significance level ([6]; day 10, 10 mpk p.o. once daily): ** (**p<0.01) | Pinna thickness change rate at time point, Significance level ([6]; day 10, 30 mpk p.o. once daily): ** (**p<0.01) | Pinna thickness change rate at time point, Significance level ([6]; day 12, 3 mpk p.o. once daily): ns (p>0.05) | Pinna thickness change rate at time point, Significance level ([6]; day 12, 10 mpk p.o. once daily): ns (p>0.05) | Pinna thickness change rate at time point, Significance level ([6]; day 12, 30 mpk p.o. once daily): ** (**p<0.01) | Pinna thickness change rate at time point, Significance level ([6]; day 14, 3 mpk p.o. once daily): ns (p>0.05) | Pinna thickness change rate at time point, Significance level ([6]; day 14, 10 mpk p.o. once daily): ** (**p<0.01) | Pinna thickness change rate at time point, Significance level ([6]; day 14, 30 mpk p.o. once daily): ** (**p<0.01) | Pinna thickness change rate at time point, Significance level ([6]; day 17, 3 mpk p.o. once daily): ns (p>0.05) | Pinna thickness change rate at time point, Significance level ([6]; day 17, 10 mpk p.o. once daily): ns (p>0.05) | Pinna thickness change rate at time point, Significance level ([6]; day 17, 30 mpk p.o. once daily): * (*p<0.05) | Pinna thickness change rate at time point, Significance level ([6]; day 19, 3 mpk p.o. once daily): ns (p>0.05) | Pinna thickness change rate at time point, Significance level ([6]; day 19, 10 mpk p.o. once daily): ** (**p<0.01) | Pinna thickness change rate at time point, Significance level ([6]; day 19, 30 mpk p.o. once daily): *** (***p<0.001) | Pinna thickness change rate at time point, Significance level ([6]; day 21, 3 mpk p.o. once daily): ns (p>0.05) | Pinna thickness change rate at time point, Significance level ([6]; day 21, 10 mpk p.o. once daily): ** (**p<0.01) | Pinna thickness change rate at time point, Significance level ([6]; day 21, 30 mpk p.o. once daily): *** (***p<0.001) | Number of inflammatory cells per mm ([6]; 3 mpk p.o. once daily 22 days): 189 ± 27.25 cells per mm | Number of inflammatory cells per mm ([6]; 10 mpk p.o. once daily 22 days): 162 ± 18.31 cells per mm | Number of inflammatory cells per mm ([6]; 30 mpk p.o. once daily 22 days): 160 ± 34.18 cells per mm | Rate of change in body weight, Significance level ([7]; 3 mpk p.o. once daily 22 days): ** (**p<0.01) | Rate of change in body weight, Significance level ([7]; 10 mpk p.o. once daily 22 days): ns (p>0.05) | Rate of change in body weight, Significance level ([7]; 30 mpk p.o. once daily 22 days): ns (p>0.05)

CCCS(=O)(=O)N[C@H]1C[C@@H](N(C)c2ncnc3[nH]ccc23)C1 [Abrocitinib, reference compound]
Inflammatory cell content in right ear tissue, Significance level ([6]; 17 mpk p.o. once daily 22 days): * (*p<0.05) | Clinical scores of dorsal skin, Significance level ([6]; 17 mpk p.o. once daily 22 days): * (*p<0.05) | Rate of change in the thickness of the pinna of the right ear, Significance level ([6]; 17 mpk p.o. once daily 22 days): **** (****p<0.0001) | Thickness of dermis layer of right ear, Significance level ([6]; 17 mpk p.o. once daily 22 days): *** (***p<0.001) | Thickness of epidermal layer of right ear, Significance level ([6]; 17 mpk p.o. once daily 22 days): ns (p>0.05) | Pinna thickness change rate at time point, Significance level ([6]; day 3, 17 mpk p.o. once daily): ns (p>0.05) | Pinna thickness change rate at time point, Significance level ([6]; day 5, 17 mpk p.o. once daily): ns (p>0.05) | Pinna thickness change rate at time point, Significance level ([6]; day 7, 17 mpk p.o. once daily): ns (p>0.05) | Pinna thickness change rate at time point, Significance level ([6]; day 10, 17 mpk p.o. once daily): ** (**p<0.01) | Pinna thickness change rate at time point, Significance level ([6]; day 12, 17 mpk p.o. once daily): * (*p<0.05) | Pinna thickness change rate at time point, Significance level ([6]; day 14, 17 mpk p.o. once daily): ** (**p<0.01) | Pinna thickness change rate at time point, Significance level ([6]; day 17, 17 mpk p.o. once daily): ns (p>0.05) | Pinna thickness change rate at time point, Significance level ([6]; day 19, 17 mpk p.o. once daily): ** (**p<0.01) | Pinna thickness change rate at time point, Significance level ([6]; day 21, 17 mpk p.o. once daily): * (*p<0.05) | Number of inflammatory cells per mm ([6]; 17 mpk p.o. once daily 22 days): 236 ± 26.59 cells per mm | Rate of change in body weight, Significance level ([7]; 17 mpk p.o. once daily 22 days): ns (p>0.05)
